Data set [1] concerns the target T1, C5a anaphylatoxin chemotactic receptor 1 (Homo sapiens, UniProt P21730).
T1 sequence (P21730 whole entry): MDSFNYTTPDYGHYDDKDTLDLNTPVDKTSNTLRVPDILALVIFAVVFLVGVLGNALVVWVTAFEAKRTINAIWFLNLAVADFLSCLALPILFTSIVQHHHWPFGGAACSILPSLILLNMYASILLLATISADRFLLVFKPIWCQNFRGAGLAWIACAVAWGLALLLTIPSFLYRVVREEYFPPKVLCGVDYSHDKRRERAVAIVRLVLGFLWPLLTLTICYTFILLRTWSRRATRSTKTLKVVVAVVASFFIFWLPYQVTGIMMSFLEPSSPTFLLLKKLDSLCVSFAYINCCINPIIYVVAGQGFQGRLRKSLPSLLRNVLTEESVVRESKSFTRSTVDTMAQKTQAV
Description: Binding affinity to N-terminal peptide SR5 of C5aR1 (1 to 28 residues)(unknown origin) assessed as dissociation constant by fluorescence based analysis.

Data set [2] deals with T2, C5a anaphylatoxin chemotactic receptor 2 (Homo sapiens, UniProt Q9P296). Description: Binding affinity to N-terminal peptide SR12 of C5aR2 (6 to 32 residues)(unknown origin) assessed as dissociation constant by fluorescence based analysis.
For another data set, the system named is HEK293. The experiment in a line: Cytotoxicity against human HEK293 cells assessed as cellular viability at 0.19 to 100 uM incubated for 18 hrs by MTT assay. Type of data set: toxicity, cell-based. As to conditions: hek293, 18 h, dose 0.19-100 µM. (Formazan colour is commonly taken as a measure of viable cells.)
The target of data set [3] is T3, Complement C5 (Homo sapiens, UniProt P01031). The experiment in a line: Binding affinity to C5a (unknown origin) assessed as change in near-UV CD signature at 50 uM. The following applies: filed as modulator.
The test system of the next data set is HeLa. Description: Cytotoxicity against human HeLa cells assessed as cellular viability at 0.19 to 100 uM incubated for 18 hrs by MTT assay. As to conditions: dose 0.19-100 µM. Type of data set: toxicity, cell-based.
Data set [4] deals with T1, C5a anaphylatoxin chemotactic receptor 1. Description: Binding affinity to N-terminal peptide SR3 of C5aR1 (1 to 28 residues)(unknown origin) assessed as dissociation constant by fluorescence based analysis.
In the next data set the test system is Erythrocyte. Description: Hemolytic activity against human erythrocytes at 0.19 to 100 uM incubated for 1 hr by absorbance based assay. Type of data set: toxicity, cell-based. The following applies: dose 0.19-100 µM.
Data set [5] addresses T3, Complement C5. Description: Binding affinity to C5a (unknown origin) at 2 mM by 1H NMR analysis. As to conditions: filed as modulator.
The target in data set [6] is T3, Complement C5. Description: Binding affinity to C5a (unknown origin) assessed as dissociation constant incubated for 1 hr by CD analysis.
In data set [7] the target is T3, Complement C5. The experiment in a line: Binding affinity to C5a (unknown origin) at 10 uM by FT-IR analysis. The following applies: filed as modulator.
The next data set deals with trypsin (Homo sapiens, UniProt P07477+P07478+P35030). Description: Induction of trypsin (unknown origin)-mediated proteolysis of compound incubated for 4 hrs by LC-HRMS spectroscopy. Type of data set: protein assay. As to conditions: trypsin (enzyme incubation), read-out: Activity.
For data set [8], the target named is T3, Complement C5. Description: Binding affinity to C5a (unknown origin) assessed as dissociation constant by fluorescence quenching analysis.
Data set [9] deals with T2, C5a anaphylatoxin chemotactic receptor 2. Description: Binding affinity to N-terminal peptide SR13 of C5aR2 (14 to 32 residues)(unknown origin) assessed as dissociation constant by fluorescence based analysis.
For data set [10], the target named is T3, Complement C5. The experiment in a line: Binding affinity to C5a (unknown origin) assessed as tryptophan lifetime by TCSPC analysis (reference value: 2.70 +/- 0.03 nanoseconds). As to conditions: filed as modulator.

Calls of active or inactive are those of the source. The calls are words filed in the database; no cut-off is given here.

T2 sequence (Q9P296 whole entry, the tested form may be a part): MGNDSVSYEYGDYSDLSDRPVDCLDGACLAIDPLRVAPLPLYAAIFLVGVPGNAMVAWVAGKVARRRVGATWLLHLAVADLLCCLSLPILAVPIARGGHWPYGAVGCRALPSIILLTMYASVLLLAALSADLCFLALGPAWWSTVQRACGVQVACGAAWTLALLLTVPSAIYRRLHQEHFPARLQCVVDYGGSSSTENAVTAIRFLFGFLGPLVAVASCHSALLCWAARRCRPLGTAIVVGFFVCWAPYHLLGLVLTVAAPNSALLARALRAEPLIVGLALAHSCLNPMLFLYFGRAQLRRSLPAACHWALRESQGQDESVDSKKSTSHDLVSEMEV

As for `CC[C@H](C)[C@H](NC(=O)[C@H](CO)NC(=O)[C@@H](CCC(=O)O)NC(=O)[C@H](CCCNC(=N)N)NC(=O)[C@@H]1CCCN1C(=O)[C@@H](Cc1ccccc1)NC(=O)[C@H](CC(=O)O)NC(=O)[C@@H](CCCNC(=N)N)NC(=O)[C@H](CCCCN)NC(=O)[C@H](Cc1c[nH]c2ccccc12)NC(=O)[C@H](CCSC)NC(=O)[C@@H](CCC(=O)O)NC(=O)[C@H](CC(=O)O)NC(=O)[C@H](CC(C)C)NC(=O)CNC(=O)[C@H]1CCCN1C(=O)[C@H](Cc1ccc(O)cc1)NC(=O)[C@H](CCC(N)=O)NC(=O)[C@@H](CC(=O)O)NC(=O)[C@H](CCCNC(=N)N)NC(=O)[C@@H](NC(=O)[C@H](Cc1cnc[nH]1)NC(=O)[C@@H](CCC(=O)O)NC(=O)[C@H](CC(N)=O)NC(=O)[C@H](CC(C)C)NC(C)=O)C(C)C)C(=O)N[C@@H](CCCNC(=N)N)C(=O)N[C@H](C(=O)N[C@@H](Cc1cnc[nH]1)C(=O)N[C@H](C(=O)N[C@@H](C)C(N)=O)[C@@H](C)O)[C@@H](C)O`, the Kd – broadly, the concentration at which binding is half-saturated – in data set [1] stood at 105 nM; in data set [2], 203 nM; in data set [4], 126 nM; on Complement C5 [6] it was 700 nM; on Complement C5 [8], 880 nM; in [9], 299 nM. Further, the Activity result in the data set with HEK293, with HeLa and in the data set with Erythrocyte was “Non-Toxic” each time. Further, the outcome on Complement C5 [3], at Complement C5 [5] and at Complement C5 [7] was Active. Besides, the metabolised at 4 h at trypsin worked out at 0%.

On to `CC[C@H](C)[C@H](NC(=O)[C@H](CO)NC(=O)[C@H](CCC(=O)O)NC(=O)[C@H](CCCNC(=N)N)NC(=O)[C@@H]1CCCN1C(=O)[C@H](Cc1ccccc1)NC(=O)[C@H](CC(=O)O)NC(=O)[C@H](CCCNC(=N)N)NC(=O)[C@H](CCCCN)NC(=O)[C@H](Cc1c[nH]c2ccccc12)NC(=O)[C@H](CCSC)NC(=O)[C@H](CCC(=O)O)NC(=O)[C@H](CC(=O)O)NC(=O)[C@H](CC(C)C)NC(=O)CNC(=O)[C@@H]1CCCN1C(=O)[C@H](Cc1ccc(O)cc1)NC(=O)[C@H](CCC(N)=O)NC(=O)[C@H](CC(=O)O)NC(=O)[C@H](CCCNC(=N)N)NC(=O)[C@@H](NC(=O)[C@H](Cc1cnc[nH]1)NC(=O)[C@H](CCC(=O)O)NC(=O)[C@H](CC(N)=O)NC(=O)[C@H](CC(C)C)NC(C)=O)C(C)C)C(=O)N[C@@H](CCCNC(=N)N)C(=O)N[C@H](C(=O)N[C@@H](Cc1cnc[nH]1)C(=O)N[C@H](C(=O)N[C@@H](C)C(N)=O)[C@@H](C)O)[C@@H](C)O`, for which the Time on Complement C5 [10] came to 1.99 nanoseconds. Further, the Kd in data set [1] is 105 nM; in data set [2], 203 nM; in data set [4] it was 126 nM; at Complement C5 [6], 940 nM; at Complement C5 [8], 820 nM; in data set [9], 299 nM. The Activity result with HEK293, in the data set on HeLa and in the data set with Erythrocyte was “Non-Toxic” in each case. Moreover, the outcome at Complement C5 [3], at Complement C5 [5] and at Complement C5 [7] was Active.

(Values after ChEMBL document CHEMBL5576118, “Structure of Designer Antibody-like Peptides Binding to the Human C5a with Potential to Modulate the C5a Receptor Signaling” (J Med Chem, 2024).)
